Measured values from patent US10889562B2, “Prodrugs of Nrf2 activating compounds and uses thereof” (Rigel Pharmaceuticals, Inc., priority 2018, dated 2021).

Key:
[1] = Glutathione depletion assay (Michael reaction with reduced glutathione followed by 1H NMR); details: 2 equiv. reduced glutathione, d6-DMSO, 35° C.
Description: Accordingly, the present compounds may be assessed in vitro by reaction with glutathione as follows:
(with the top securely fastened).
In all the above cases, dis-appearance of the alkene proton signals from the starting material are used to determine the extent of Michael reaction with glutathione.
As would be understood by those of skill in the art, the above experiments can be repeated by varying the equivalents of reduced glutathione (0.5 to 2 equivalents); the reactions can also be run in a mixture of d6-DMSO and D2O; and the temperature of the reaction can also be varied from room temperature to 35° C. (35° C. being used to mimic body temperature). As used herein “majority reaction” means a greater than 50% reduction in alkene proton signal as observed by ^1H NMR.

[2] = system: experimental autoimmune encephalomyelitis (EAE); test: Experimental autoimmune encephalomyelitis (EAE) animal model; format: in vivo, mice (C57BL/6); details: mice, dosed at 60 mg/kg beginning on the day of immunization
[3] = system: NrF2 (Nuclear factor (erythroid-derived 2)-like 2); test: NrF2 activation in a whole cell nuclear translocation assay; format: cell-based
Description: Compounds are tested in a NrF2 (Nuclear factor (erythroid-derived 2)-like 2) translocation assay by adapting the methods set forth in U.S. Pat. No. 8,101,373, the disclosure of which is incorporated herein by reference. A result of NrF2 activation in the assay by the present compounds is an indication of their anti-inflammatory activity.
In addition to monomethyl fumarate and dimethyl fumarate, bardoxolone methyl may be used as a positive control.

| Structure (SMILES) | time to majority reaction with glutathione (greater than 50% reduction in alkene proton signal by 1H NMR) [1] | onset of disease paralysis [2] | EC50 [3] |
| --- | --- | --- | --- |
| COC(=O)/C=C/n1nnn(C)c1=O [methyl (E)-3-(4-methyl-5-oxo-4,5-dihydro-1H-tetrazol-1-yl)acrylate] | ≤ 30 h | – | – |
| COC(=O)/C=C/n1nn[nH]c1=O [methyl (E)-3-(5-oxo-4,5-dihydro-1H-tetrazol-1-yl)acrylate] | ≤ 30 h | significantly prevents the onset of disease paralysis | – |
| COC(=O)/C=C/C(=O)O [monomethylfumarate] | – | – | ~127 µM |
